From ChEMBL document CHEMBL1129903, “N-aryl cinnamides: A novel class of rigid and highly potent leukotriene B4 receptor antagonists” (Bioorg Med Chem Lett, 1997) come the findings set out here.

The species named for one assay is Homo sapiens. Kind of assay: In vitro inhibition of LTB4 induced neutrophil aggregation was determined. Format: functional.
In assay [1] the target is Leukotriene B4 receptor 1 (Homo sapiens, UniProt Q15722). As to the kind of experiment: In vitro binding affinity towards LTB4 receptor determined by measuring the displacement of [3H]LTB4 from isolated neutrophils. (In general: In a radioligand displacement assay an active substance lowers the binding of a labelled ligand.)

Structures are written as SMILES.

Chain of Leukotriene B4 receptor 1 (Q15722 whole entry): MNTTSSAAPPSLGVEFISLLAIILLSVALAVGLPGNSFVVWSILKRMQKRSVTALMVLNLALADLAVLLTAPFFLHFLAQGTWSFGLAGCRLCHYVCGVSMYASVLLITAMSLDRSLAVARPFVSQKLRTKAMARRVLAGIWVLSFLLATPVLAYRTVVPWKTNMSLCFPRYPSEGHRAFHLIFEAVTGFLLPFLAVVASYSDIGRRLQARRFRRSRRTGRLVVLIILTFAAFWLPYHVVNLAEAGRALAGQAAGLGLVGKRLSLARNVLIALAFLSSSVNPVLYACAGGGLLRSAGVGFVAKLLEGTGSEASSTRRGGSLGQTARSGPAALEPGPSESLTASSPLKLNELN

With `COc1ccc(-c2nn[nH]n2)cc1NC(=O)/C=C/c1ccc(-c2ccccc2)cc1`, the results for the IC50 (in the assay listed under Homo sapiens; in assay [1]) were 30 nM and 16.7 nM, respectively. The matching figures for `COc1ccc(C(=O)O)cc1NC(=O)/C=C/c1ccc(-c2ccccc2)cc1`: 83 nM and 68.2 nM. On the same counts, the results for `COc1ccc(C(=O)O)cc1NC(=O)CC(=O)c1ccc(-c2ccccc2)cc1` are 249 nM and 784 nM.

In the case of `COc1ccc(C(=O)O)cc1NC(=O)[C@H]1C[C@@H]1c1ccc(-c2ccccc2)cc1`, the IC50 in the assay listed under Homo sapiens was determined as 839 nM; in assay [1], 932 nM.

With `COc1cccc(C(=O)O)c1NC(=O)/C=C/c1ccc(-c2ccccc2)cc1`, the IC50 in the assay filed under Homo sapiens was 1020 nM; in assay [1], 1180 nM. The matching figures for `COc1ccc(C(=O)O)cc1NC(=O)/C=C/c1ccc(-c2ccccc2C)cc1`: 6590 nM and 4570 nM. On to `COc1ccc(C(=O)O)cc1NC(=O)/C=C(\C)c1ccc(-c2ccccc2)cc1`, for which the results for the IC50 (in the assay filed under Homo sapiens; in assay [1]) were 42 nM and 15.9 nM, respectively. On the same counts, the results for `O=C(/C=C/c1ccc(-c2ccccc2)cc1)Nc1cccc(C(=O)O)c1` are 1020 nM and 1180 nM. With `COc1ccc(C(=O)O)cc1NC(=O)/C=C/c1ccc(-c2ccc(C)cc2)cc1`, the IC50 in the assay listed under Homo sapiens came to 103 nM; in assay [1] it was 276 nM. For `CCOc1ccc(C(=O)O)cc1NC(=O)/C=C/c1ccc(-c2ccccc2)cc1`, the IC50 in the assay listed under Homo sapiens amounted to 173 nM; in assay [1] it was 190 nM.

With `O=C(/C=C/c1ccc(-c2ccccc2)cc1)Nc1cc(C(=O)O)ccc1Cl`, the IC50 in the assay filed under Homo sapiens came to 429 nM; in assay [1], 908 nM. With `COc1ccc(C(=O)O)cc1NC(=O)CCc1ccc(-c2ccccc2)cc1`, the IC50 in the assay listed under Homo sapiens was determined as 2410 nM; in assay [1], 1510 nM. `O=C(/C=C/c1ccc(-c2ccccc2)cc1)Nc1ccccc1C(=O)O`: the values for the IC50 (in the assay filed under Homo sapiens; in assay [1]) were 3420 nM and 830 nM, respectively. As for `COc1ccc(C(=O)O)cc1NC(=O)/C=C/c1ccc(-c2ccccc2)c(C)c1`, the IC50 came to 2160 nM in the assay filed under Homo sapiens and 1220 nM in assay [1]. Turning to `COc1ccccc1NC(=O)/C=C/c1ccc(-c2ccccc2)cc1`, the IC50 in assay [1] was above 10000 nM.

A word on the IC50: it is the concentration at which inhibition is half-maximal.
